Source: PubChem BioAssay (NCI)
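Briefly, cells in 96-well plates were exposed to five compound concentrations for 48 h, and endpoints were estimated by linear interpolation. Here, GI50 denotes the concentration required for 50% inhibition of growth. Definition used: TGI = concentration required for complete inhibition of growth.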

Columns and labels:
Assay in all cases: inhibition of tumour cell growth, NCI panel, 48 h
HCC-2998 colon = test system: HCC-2998 colon
LOX IMVI melanoma = test system: LOX IMVI melanoma
SNB-78 CNS = test system: SNB-78 CNS
DLD-1 colon = test system: DLD-1 colon
TK-10 renal = test system: TK-10 renal
RXF-631 renal = test system: RXF-631 renal
NCI-H23 lung = test system: NCI-H23 lung
K-562 leukemia = test system: K-562 leukemia
KM12 colon = test system: KM12 colon
HOP-92 NSCLC = test system: HOP-92 NSCLC
UO-31 renal = test system: UO-31 renal
HL-60(TB) leukemia = test system: HL-60(TB) leukemia
UACC-257 melanoma = test system: UACC-257 melanoma
SF-268 CNS = test system: SF-268 CNS
RXF 393 renal = test system: RXF 393 renal
SNB-19 CNS = test system: SNB-19 CNS
XF 498 CNS = test system: XF 498 CNS
HCT-15 colon = test system: HCT-15 colon
SF-295 CNS = test system: SF-295 CNS
OVCAR-4 ovarian = test system: OVCAR-4 ovarian
786-0 renal = test system: 786-0 renal
A549 NSCLC = test system: A549 NSCLC
RPMI-8226 leukemia = test system: RPMI-8226 leukemia
CAKI-1 renal = test system: CAKI-1 renal
NCI-H460 lung = test system: NCI-H460 lung
DMS 273 small cell lung = test system: DMS 273 small cell lung
NCI-H226 lung = test system: NCI-H226 lung
OVCAR-3 ovarian = test system: OVCAR-3 ovarian
U251 CNS = test system: U251 CNS
MALME-3M melanoma = test system: MALME-3M melanoma
SK-MEL-2 melanoma = test system: SK-MEL-2 melanoma
CCRF-CEM leukemia = test system: CCRF-CEM leukemia
SW-620 colon = test system: SW-620 colon
UACC-62 melanoma = test system: UACC-62 melanoma
SK-MEL-5 melanoma = test system: SK-MEL-5 melanoma
SR leukemia = test system: SR leukemia
COLO 205 colon = test system: COLO 205 colon
M14 melanoma = test system: M14 melanoma
EKVX NSCLC = test system: EKVX NSCLC
M19-MEL melanoma = test system: M19-MEL melanoma
HOP-18 NSCLC = test system: HOP-18 NSCLC
SK-OV-3 ovarian = test system: SK-OV-3 ovarian
HCT-116 colon = test system: HCT-116 colon
HT29 colon = test system: HT29 colon
SK-MEL-28 melanoma = test system: SK-MEL-28 melanoma
SN12C renal = test system: SN12C renal
OVCAR-8 ovarian = test system: OVCAR-8 ovarian
LXFL 529 NSCLC = test system: LXFL 529 NSCLC
OVCAR-5 ovarian = test system: OVCAR-5 ovarian
KM20L2 colon = test system: KM20L2 colon
SF-539 CNS = test system: SF-539 CNS
MOLT-4 leukemia = test system: MOLT-4 leukemia
IGROV1 ovarian = test system: IGROV1 ovarian
ACHN renal = test system: ACHN renal
SNB-75 CNS = test system: SNB-75 CNS
A498 renal = test system: A498 renal
NCI-H522 lung = test system: NCI-H522 lung
DMS 114 small cell lung = test system: DMS 114 small cell lung
HOP-62 NSCLC = test system: HOP-62 NSCLC

## O=C([O-])c1ccc(C(=O)[O-])cc1.O=C([O-])c1ccc(C(=O)[O-])cc1.[Mo+2].[Mo+2]
HCC-2998 colon
  GI50: > 100 µM
  TGI: > 100 µM
LOX IMVI melanoma
  GI50: > 100 µM
  TGI: > 100 µM
SNB-78 CNS
  GI50: > 100 µM
  TGI: > 100 µM
DLD-1 colon
  GI50: > 100 µM
  TGI: > 100 µM
TK-10 renal
  GI50: > 100 µM
  TGI: > 100 µM
RXF-631 renal
  GI50: > 100 µM
  TGI: > 100 µM
NCI-H23 lung
  GI50: > 100 µM
  TGI: > 100 µM
K-562 leukemia
  GI50: > 100 µM
  TGI: > 100 µM
KM12 colon
  GI50: > 100 µM
  TGI: > 100 µM
HOP-92 NSCLC
  GI50: 99.8 µM
  TGI: > 100 µM
UO-31 renal
  GI50: > 100 µM
  TGI: > 100 µM
HL-60(TB) leukemia
  GI50: > 100 µM
  TGI: > 100 µM
UACC-257 melanoma
  GI50: > 100 µM
  TGI: > 100 µM
SF-268 CNS
  GI50: > 100 µM
  TGI: > 100 µM
RXF 393 renal
  GI50: > 100 µM
  TGI: > 100 µM
SNB-19 CNS
  GI50: > 100 µM
  TGI: > 100 µM
XF 498 CNS
  GI50: > 100 µM
  TGI: > 100 µM
HCT-15 colon
  GI50: > 100 µM
  TGI: > 100 µM
SF-295 CNS
  GI50: > 100 µM
  TGI: > 100 µM
OVCAR-4 ovarian
  GI50: > 100 µM
  TGI: > 100 µM
786-0 renal
  GI50: > 100 µM
  TGI: > 100 µM
A549 NSCLC
  GI50: > 100 µM
  TGI: > 100 µM
RPMI-8226 leukemia
  GI50: > 100 µM
  TGI: > 100 µM
CAKI-1 renal
  GI50: > 100 µM
  TGI: > 100 µM
NCI-H460 lung
  GI50: > 100 µM
  TGI: > 100 µM
DMS 273 small cell lung
  GI50: > 100 µM
  TGI: > 100 µM
NCI-H226 lung
  GI50: > 100 µM
  TGI: > 100 µM
OVCAR-3 ovarian
  GI50: > 100 µM
  TGI: > 100 µM
U251 CNS
  GI50: > 100 µM
  TGI: > 100 µM
MALME-3M melanoma
  GI50: > 100 µM
  TGI: > 100 µM
SK-MEL-2 melanoma
  GI50: > 100 µM
  TGI: > 100 µM
CCRF-CEM leukemia
  GI50: > 100 µM
  TGI: > 100 µM
SW-620 colon
  GI50: > 100 µM
  TGI: > 100 µM
UACC-62 melanoma
  GI50: > 100 µM
  TGI: > 100 µM
SK-MEL-5 melanoma
  GI50: > 100 µM
  TGI: > 100 µM
SR leukemia
  GI50: > 100 µM
  TGI: > 100 µM
COLO 205 colon
  GI50: > 100 µM
  TGI: > 100 µM
M14 melanoma
  GI50: > 100 µM
  TGI: > 100 µM
EKVX NSCLC
  GI50: > 100 µM
  TGI: > 100 µM
M19-MEL melanoma
  GI50: > 100 µM
  TGI: > 100 µM
HOP-18 NSCLC
  GI50: > 100 µM
  TGI: > 100 µM
SK-OV-3 ovarian
  GI50: > 100 µM
  TGI: > 100 µM
HCT-116 colon
  GI50: > 100 µM
  TGI: > 100 µM
HT29 colon
  GI50: > 100 µM
  TGI: > 100 µM
SK-MEL-28 melanoma
  GI50: > 100 µM
  TGI: > 100 µM
SN12C renal
  GI50: > 100 µM
  TGI: > 100 µM
OVCAR-8 ovarian
  GI50: > 100 µM
  TGI: > 100 µM
LXFL 529 NSCLC
  GI50: > 100 µM
  TGI: > 100 µM
OVCAR-5 ovarian
  GI50: > 100 µM
  TGI: > 100 µM
KM20L2 colon
  GI50: > 100 µM
  TGI: > 100 µM
SF-539 CNS
  GI50: > 100 µM
  TGI: > 100 µM
MOLT-4 leukemia
  GI50: > 100 µM
  TGI: > 100 µM
IGROV1 ovarian
  GI50: > 100 µM
  TGI: > 100 µM
ACHN renal
  GI50: > 100 µM
  TGI: > 100 µM

## CC1=C(c2cc(C(=O)Nc3cccc(C(F)(F)F)c3)ncn2)Sc2ccccc2N1
SNB-75 CNS
  TGI: > 100 µM
DLD-1 colon
  TGI: > 100 µM
TK-10 renal
  TGI: > 100 µM
NCI-H23 lung
  TGI: > 100 µM
K-562 leukemia
  TGI: > 100 µM
KM12 colon
  TGI: > 100 µM
HOP-92 NSCLC
  TGI: > 100 µM
UO-31 renal
  TGI: > 100 µM
HL-60(TB) leukemia
  TGI: > 100 µM
UACC-257 melanoma
  TGI: > 100 µM
SF-268 CNS
  TGI: > 100 µM
SNB-19 CNS
  TGI: > 100 µM
XF 498 CNS
  TGI: > 100 µM
A498 renal
  TGI: > 100 µM
HCT-15 colon
  TGI: > 100 µM
SF-295 CNS
  TGI: > 100 µM
OVCAR-4 ovarian
  TGI: > 100 µM
NCI-H522 lung
  TGI: > 100 µM
786-0 renal
  TGI: > 100 µM
A549 NSCLC
  TGI: > 100 µM
RPMI-8226 leukemia
  TGI: > 100 µM
CAKI-1 renal
  TGI: > 100 µM
NCI-H460 lung
  TGI: > 100 µM
DMS 273 small cell lung
  TGI: > 100 µM
NCI-H226 lung
  TGI: > 100 µM
OVCAR-3 ovarian
  TGI: > 100 µM
U251 CNS
  TGI: > 100 µM
MALME-3M melanoma
  TGI: > 100 µM
SK-MEL-2 melanoma
  TGI: > 100 µM
CCRF-CEM leukemia
  TGI: > 100 µM
SW-620 colon
  TGI: > 100 µM
UACC-62 melanoma
  TGI: > 100 µM
SK-MEL-5 melanoma
  TGI: > 100 µM
SR leukemia
  TGI: > 100 µM
COLO 205 colon
  TGI: > 100 µM
M14 melanoma
  TGI: > 100 µM
EKVX NSCLC
  TGI: > 100 µM
M19-MEL melanoma
  TGI: > 100 µM
HOP-18 NSCLC
  TGI: > 100 µM
SK-OV-3 ovarian
  TGI: > 100 µM
HCT-116 colon
  TGI: > 100 µM
HT29 colon
  TGI: > 100 µM
SK-MEL-28 melanoma
  TGI: > 100 µM
SN12C renal
  TGI: > 100 µM
OVCAR-8 ovarian
  TGI: > 100 µM
LXFL 529 NSCLC
  TGI: > 100 µM
KM20L2 colon
  TGI: > 100 µM
SF-539 CNS
  TGI: > 100 µM
DMS 114 small cell lung
  TGI: > 100 µM
HOP-62 NSCLC
  TGI: > 100 µM
MOLT-4 leukemia
  TGI: > 100 µM
IGROV1 ovarian
  TGI: > 100 µM
ACHN renal
  TGI: > 100 µM

## Cc1nc(Nc2ccc([N+](=O)[O-])cc2)sc1C(/C=C/c1ccc(N(C)C)cc1)=N/NC(=O)c1ccccc1
HCC-2998 colon
  TGI: > 100 µM
LOX IMVI melanoma
  TGI: > 100 µM
SNB-78 CNS
  TGI: > 100 µM
SNB-75 CNS
  TGI: > 100 µM
DLD-1 colon
  TGI: > 100 µM
TK-10 renal
  TGI: > 100 µM
RXF-631 renal
  TGI: > 100 µM
NCI-H23 lung
  TGI: > 100 µM
K-562 leukemia
  TGI: > 100 µM
KM12 colon
  TGI: > 100 µM
HOP-92 NSCLC
  TGI: 52.7 µM
UO-31 renal
  TGI: > 100 µM
HL-60(TB) leukemia
  TGI: > 100 µM
UACC-257 melanoma
  TGI: > 100 µM
SF-268 CNS
  TGI: > 100 µM
RXF 393 renal
  TGI: > 100 µM
SNB-19 CNS
  TGI: > 100 µM
XF 498 CNS
  TGI: > 100 µM
HCT-15 colon
  TGI: > 100 µM
SF-295 CNS
  TGI: > 100 µM
OVCAR-4 ovarian
  TGI: > 100 µM
NCI-H522 lung
  TGI: > 100 µM
786-0 renal
  TGI: > 100 µM
A549 NSCLC
  TGI: > 100 µM
CAKI-1 renal
  TGI: > 100 µM
NCI-H460 lung
  TGI: > 100 µM
NCI-H226 lung
  TGI: > 100 µM
OVCAR-3 ovarian
  TGI: > 100 µM
U251 CNS
  TGI: > 100 µM
MALME-3M melanoma
  TGI: > 100 µM
SK-MEL-2 melanoma
  TGI: > 100 µM
CCRF-CEM leukemia
  TGI: > 100 µM
SW-620 colon
  TGI: > 100 µM
UACC-62 melanoma
  TGI: 28.5 µM
SR leukemia
  TGI: > 100 µM
COLO 205 colon
  TGI: > 100 µM
M14 melanoma
  TGI: > 100 µM
EKVX NSCLC
  TGI: > 100 µM
M19-MEL melanoma
  TGI: > 100 µM
HOP-18 NSCLC
  TGI: > 100 µM
SK-OV-3 ovarian
  TGI: > 100 µM
HCT-116 colon
  TGI: > 100 µM
HT29 colon
  TGI: > 100 µM
SK-MEL-28 melanoma
  TGI: > 100 µM
SN12C renal
  TGI: > 100 µM
OVCAR-8 ovarian
  TGI: > 100 µM
LXFL 529 NSCLC
  TGI: > 100 µM
OVCAR-5 ovarian
  TGI: > 100 µM
KM20L2 colon
  TGI: > 100 µM
SF-539 CNS
  TGI: > 100 µM
DMS 114 small cell lung
  TGI: > 100 µM
HOP-62 NSCLC
  TGI: > 100 µM
MOLT-4 leukemia
  TGI: > 100 µM
IGROV1 ovarian
  TGI: > 100 µM
ACHN renal
  TGI: > 100 µM
